Measurements from article PMC6713262 (Cell, 2019).
Where two headings read alike, the source gives them in different places.

Target: crystallized CB2 construct (CB2-T4L) (Homo sapiens, UniProt P34972, D228Y/G225M/G233N/G304E/G78L/H226L/INS221[…]/INS227[…]/INS235[…]/M234R/R229N/R242E/S224R/T127A/T153L/V231T)
Assay: Radioligand competition binding with [3H]-CP55,940, crystallized CB2 construct

Molecule | Effect of construct modifications on binding affinity of CB2 (T4L fusion, five mutations, N/C-terminal truncation, Figure S1F) | Effect of construct modifications on binding affinity of CB2
Cc1c(C(=O)NC23CC4CC(CC(C4)C2)C3)nn(CCCCCO)c1-c1ccccc1 [AM10257, 1-(5-Hydroxypentyl)-4-methyl-5-phenyl-N-tricyclo[3.3.1.1^3,7]dec-1-yl-1H-pyrazole-3-carboxamide] | little effect | 
SR144528 [reference compound] |  | little effect
